How the values were obtained:
[1] = system: primary human macrophages; assay: Cytokine synthesis by primary human macrophages stimulated with FBG peptides; type: cell-based; conditions: 1 or 20 μM peptide, 24 h (IL8, FIG. 17)
Procedure: (§1) After incubation the tissue was pipetted through a nylon mesh into a sterile beaker. The cells were then washed three times in complete medium (RPMI 1640 supplemented with 10% FCS). RA synovial fibroblasts were isolated from the mixed population of RA membrane cells by selection in DMEM (Bio-Whittaker) supplemented with 10% FBS, […], 100 U/ml penicillin, and streptomycin. Human monocytes were isolated from peripheral blood (London Blood Bank) and macrophages were derived from monocytes after differentiation for 4 days with 100 ng/ml of M-CSF.
(§2) Macrophages were cultured at 1×10^5 cells/well in RPMI 1640 containing 5% (v/v) FBS and 100 U/ml penicillin/streptomycin in 96-well tissue culture plates for 24 h before stimulation. Cells were incubated for 24 h at 37° C. with no addition, 1.0 μM FBG, 1 ng/ml LPS or 1 or 20 μM FBG peptide. Where stated, cells were pre-incubated with 20 μM FBG peptides for 15 min.
(§3) Supernatants were examined for the presence of the cytokines TNF-α, IL-6, and IL-8 by enzyme-linked immunosorbent assay (ELISA) according to the manufacturer's instructions (R&D systems). Absorbance was read on a spectrophotometric ELISA plate reader (Labsystems Multiscan Biochromic, Vantaa, Finland) and analyzed using the Ascent software program (Thermo Labsystems, Altrincham, UK).

[2] = system: human macrophages; assay: FBG or LPS induced cytokine synthesis in human macrophages pre-incubated with FBG peptides; type: cell-based; conditions: pre-incubated with 20 μM peptide for 15 min; for FBG mediated cytokine synthesis (block): then 1.0 μM FBG 24 h
Procedure: as §1, §2, §3

[3] = system: RA membrane cells; assay: Blockade of spontaneous cytokine synthesis in RA synovial membrane cultures by FBG peptides; type: cell-based, human; conditions: for inhibition of cytokine synthesis: highest concentrations, dose dependent (25, 100 or 250 μM, TNF & IL8, FIG. 16); for TNF and IL8 synthesis (inhibition): spontaneous cytokine synthesis, 24 h with peptide
Procedure: RA membrane cells (representing a mixed population of all synovial cell types) were isolated from synovial membranes obtained from patients undergoing joint replacement surgery (Brennan (1989)). Synovial membrane tissue was digested in RPMI 1640 (GIBCO) containing 5% fetal calf serum (FCS) (GIBCO), 5 mg/ml collagenase type IV (Sigma) and 0 15 mg/ml DNAse type I (Sigma) and incubated at 37° C. for 2 h.
Immediately after isolation, RA membrane cells were cultured at 1×10^5 cells/well in RPMI 1640 containing 10% (v/v) FBS and 100 U/ml penicillin/streptomycin in 96-well tissue culture plates. Cells were incubated for 24 h at 37° C. with no addition, buffer control (PBS, 1% BSA, 0.01% NaN3), or with 25 μm, 100 μM or 250 μM of each FBG spanning peptide.
as §3

[4] = system: MyD88 deficient mouse embryonic fibroblasts; assay: Cytokine synthesis in mouse embryonic fibroblasts from MyD88 deficient mice; type: cell-based; conditions: 24 h; FBG 1 μM, PAM3, LPS, TNFα 100 ng/ml, IL-1 5 ng/ml
Excerpt: (§4) Homozygous MyD88 deficient mice on a C57BL/6 background were provided by the Sanger Institute (Cambridge, UK). Age matched congenic inbred wild type C57B/L6 mice were obtained from Charles River (Margate, UK). For isolation of mouse embryo fibroblasts one female aged 8-10 weeks was mated with two males aged 8-10 weeks. For isolation of bone marrow derived macrophages mice were female and between 10-12 weeks of age at the time of experimentation.
MEFs express high levels of mRNA of all 9 murine TLRs and are specifically and highly responsive to TLR ligand activation. […] Fibroblasts were cultured at 2×10^4 cells/well in DMEM containing 10% (v/v) FBS and 100 U/ml penicillin/streptomycin in 96-well tissue culture plates for 24 hours before stimulation.
(§5) Cells were incubated for 24 hours at 37° C. with the indicated doses of tenascin-C and recombinant tenascin-C fragments (1.0 μM-1.0 nM). Cells were also stimulated where indicated with LPS (1 ng/ml for human macrophages, 10 ng/ml for human fibroblasts, RA membrane cells and HEKs, 100 ng/ml for MEFS and BMDMs and 10 ng/ml for HEKS), PAM3 (10 ng/ml for human macrophages, human fibroblasts, and HEKs, 100 ng/ml for MEFs and BMDMs), murine IL-1 (5 ng/ml for MEFS) and murine TNF-α (100 ng/ml for MEFS). Unless specifically stated otherwise rough LPS was used for in vitro studies.
as §3, with “were subsequently” for “were”, “instructions.” for “instructions (R&D systems).”

[5] = system: TLR2 or TLR4 deficient embryonic fibroblasts and bone marrow derived macrophages; assay: Cytokine synthesis in embryonic fibroblasts and macrophages from TLR2 or TLR4 deficient mice; type: cell-based, mouse; conditions: 24 h
Excerpt: as §4, with “Homozygous TLR2 and TLR4 deficient mice on a C57BL/6 background (an inbred strain of mice with a black coat) were obtained from B&K Universal (Hull, UK) Hoshino (1999) and Takeuchi (1999). Homozygous” for “Homozygous”
MEFs express high levels of mRNA of all 9 murine TLRs and are specifically and highly responsive to TLR ligand activation. […] MEFs were isolated from d13 embryos harvested from age-matched, pregnant female wild type, TLR2, TLR4 and null mice (as described in Todaro (1963)). Fibroblasts were cultured at 2×10^4 cells/well in DMEM containing 10% (v/v) FBS and 100 U/ml penicillin/streptomycin in 96-well tissue culture plates for 24 hours before stimulation.
BMDMs were derived by aspirating the femurs of age matched female wild type, TLR2 and TLR4 null mice as described in Butler (1999)) and culturing the cells for 7 days in DMEM, 20% (v/v) FBS, 10 ml/L (v/v) antibiotic-antimycotic solution PSA, 50 μM Mercaptoethanol and 10 ng/ml M-CSF. Macrophages were then cultured at 1×10^5 cells/well in DMEM, 20% (v/v) FBS, 10 ml/L (v/v) antibiotic-antimycotic solution PSA, 50 μM β-Mercaptoethanol in 96-well tissue culture plates for 24 hours before stimulation.
as §5
as §3, with “were subsequently” for “were”, “instructions.” for “instructions (R&D systems).”

[6] = system: primary human macrophages; assay: Cytokine synthesis in primary human macrophages stimulated with tenascin-C or its domains; type: cell-based
Procedure: Human monocytes were isolated from peripheral blood (London Blood Bank) and macrophages were derived from monocytes after differentiation for 4 days with 100 ng/ml of M-CSF as previously described (Foxwell (1998)).
(§6) Immediately after isolation, RA membrane cells and macrophages were cultured at 1×10^5 cells/well in RPMI 1640 containing 10% (v/v) FBS and 100 U/ml (Units/ml) penicillin/streptomycin in 96-well tissue culture plates for 24 hours before stimulation. Synovial fibroblasts (used only at either passage number 2 or 3) were cultured at 1×10^4 cells/well in DMEM containing 10% (v/v) FBS and 100 U/ml penicillin/streptomycin in 96-well tissue culture plates for 24 hours before stimulation.
as §5
(§7) Where stated, cells were pre-incubated with 10 μg/ml anti-CD14 antibody, 10 μg/ml IL1 receptor antagonist, 10 μg/ml anti-TLR2 antibody, 25 μg/ml anti-TLR4 antibody, 10 or 25 μg/ml isotype control antibody, 25 μg/ml polymyxin B, or 1 μg/ml msbB LPS, for 30 minutes at 37° C. before stimulation. Where stated, recombinant tenascin-C and FBG, and LPS were boiled for 15 minutes before addition to cells
as §3, with “were subsequently” for “were”, “instructions.” for “instructions (R&D systems).”

[7] = system: RA synovial fibroblasts; assay: Cytokine synthesis in RA synovial fibroblasts stimulated with tenascin-C, FBG or LPS; type: cell-based, human; conditions: 24 h
Excerpt: RA membrane cells (representing a mixed population of all synovial cell types) were isolated from synovial membranes obtained from patients undergoing joint replacement surgery as previously described (Brennan (1989)). RA synovial fibroblasts were isolated from the mixed population of RA membrane cells as previously described (Brennan (1989)). The study was approved by the local Trust ethics committee (Riverside NHS Research Committee), and waste tissue (synovium after joint replacement surgery) was obtained only after receiving signed informed consent from the patient and anonymyzing the tissue to protect patient identity.
as §6, §5, §7
as §3, with “were subsequently” for “were”, “instructions.” for “instructions (R&D systems).”

[8] = system: human macrophages and RA synovial fibroblasts; assay: Ligand induced cytokine synthesis after pre-incubation with function blocking antibodies or inhibitors; type: cell-based; conditions: 10 μg/ml IL1 receptor antagonist pre-incubation
Procedure: as §5, §7
as §3, with “were subsequently” for “were”, “instructions.” for “instructions (R&D systems).”

[9] = system: tenascin-C; assay: siRNA mediated knockdown of tenascin-C expression in RA synovial fibroblasts; type: cell-based, human; conditions: 10 nM siRNA, compared to luciferase siRNA control
Procedure: (§8) Synovial fibroblasts (used only at either passage number 2 or 3) were seeded at a concentration of 5×10^4 cells in a 3.5-cm dish. siRNA was transfected at a final concentration of 10 nM using Lipofectamine 2000 (Invitrogen) for 4 h in serum-free OptiMEM I. Two different siRNAs against human tenascin-C were used (s7069 and s229491) (Applied Biosystems).
siRNA sequences of s7069 are: (sense 5′ […]tt 3′, antisense 5′ […]tc 3′) and of s229491 are (5′ […]tt 3′, antisense 5′ […]gg 3′). siRNA against luciferase (Dharmacon) was transfected as a non-targeting control.
Four hours after transfection, medium was changed with pre-equilibrated Dulbecco's modified Eagle's medium containing 10% FBS (v/v) and cells were incubated for a further 48 h and 72 h. Cells were then stimulated with 10 ng/ml LPS for 24 h at 37° C. Tenascin-C mRNA and protein levels were quantitated by PCR and western blotting respectively. […]
Gene expression was analysed by delta-delta ct methods based on quantitative real-time PCR with TaqMan primer set human tenascin-C(Hs01115663-ml) and human ribosomal protein endogenous control (RPLPO) (4310879E) (Applied Biosystems) in a Corbett Rotor-gene 6000 machine (Corbett Research Ltd). Tenascin-C protein was detected in cell supernatants and cell lysates by SDS PAGE and western blotting using antibody MAB1908 (Millipore).

[10] = system: RA synovial fibroblasts; assay: Cytokine synthesis in RA synovial fibroblasts transfected with tenascin-C siRNA; type: cell-based, human; conditions: compared to control cells (IL6)
Procedure: as §8
Four hours after transfection, medium was changed with pre-equilibrated Dulbecco's modified Eagle's medium containing 10% FBS (v/v) and cells were incubated for a further 48 h and 72 h. Cells were then stimulated with 10 ng/ml LPS for 24 h at 37° C. Tenascin-C mRNA and protein levels were quantitated by PCR and western blotting respectively. Total RNA was extracted from cells using a QiaAmp RNA Blood mini kit (Qiagen, Germany). cDNA was synthesised from equivalent amounts of total RNA using SuperScript® III Reverse Transcriptase (invitrogen) and 18-mer oligo dTs (Eurofins MWG Operon).
as §3

KTRYKLKVEGYSGTAGDSMAYHNGRSFST [Peptide 6]
cytokine synthesis (induction) [1]: induced cytokine synthesis in a dose dependent manner

WYRNCHRVNLMGRYGDNNHSQGVNWFHWKG [Peptide 8]
cytokine synthesis in response to LPS (block) ([2]; then 1 ng/ml LPS 24 h): blocked
FBG mediated cytokine synthesis (block) [2]: blocked
inhibition of cytokine synthesis [3]: 56%
TNF and IL8 synthesis (inhibition) [3]: inhibited

Pam3Cys-Ser-Lys4 [reference compound]
cytokine synthesis in embryonic fibroblasts with targeted deletion of MyD88 [4]: abolished
cytokine synthesis in cells from TLR2 deficient mice [5]: unresponsive
cytokine synthesis in cells from TLR4 deficient mice [5]: did respond

TIGLLYPFPKDCSQAMLNGDTTSGLYTIYL [Peptide 1]
cytokine synthesis (induction) [1]: induced cytokine synthesis in a dose dependent manner

ELRVDLRDHGETAFAVYDKFSVGDAKTRYK [Peptide 5]
FBG mediated cytokine synthesis (block) [2]: specifically blocked
effect on TNF synthesis ([3]; RA membrane cells, 24 h): no effect
maximal inhibition of IL8 synthesis ([3]; RA membrane cells, dose dependent): 81%
cytokine synthesis (induction) [1]: induced cytokine synthesis in a dose dependent manner

tenascin-C: recombinant full-length human tenascin-C purified from HEK293 conditioned medium
production of TNF-α, IL-6 and IL-8 in human macrophages ([6]; 1.0 μM-1.0 nM, 24 h): dose dependently stimulated
cytokine stimulation: heat sensitivity and effect of polymyxin B ([6]; boiled 15 minutes, 25 μg/ml polymyxin B pre-incubation, human macrophages and synovial fibroblasts): heat sensitive and unaffected by the LPS inhibitor, polymyxin B
TNF-α synthesis in fibroblasts [7]: Neither LPS nor tenascin-C induced
IL-6 synthesis in RA synovial fibroblasts ([7]; LPS 10 ng/ml): only induced IL-6 synthesis
IL-8 synthesis in RA synovial fibroblasts ([7]; LPS 10 ng/ml): only induced IL-6 synthesis

IL-1 receptor antagonist: IL-1 receptor antagonist from R&D Systems
inhibition of FBG induction of cytokines [8]: did not inhibit

WIVFLRRKNGRENFYQNWKAYAAGFGDRRE [Peptide 3]
inhibition of cytokine synthesis [3]: 95%
TNF and IL8 synthesis (inhibition) [3]: inhibited

TNF-α [reference compound]
cytokine synthesis in embryonic fibroblasts with targeted deletion of MyD88 [4]: unaffected

B1: IL-1: murine IL-1 used to stimulate MEFs (protein, UniProt P10749 118-269, looked up)
Interleukin-1 beta: VPIRQLHYRLRDEQQKSLVLSDPYELKALHLNGQNINQQVIFSMSFVQGEPSNDKIPVALGLKGKNLYLSCVMKDGTPTLQLESVDPKQYPKKKMEKRFVFNKIEVKSKVEFESAEFPNWYISTSQAEHKPVFLGNNSGQDIIDFTMESVSS
cytokine synthesis in embryonic fibroblasts with targeted deletion of MyD88 [4]: abolished
cytokine synthesis in cells from TLR2 deficient mice [5]: responsive
cytokine synthesis in cells from TLR4 deficient mice [5]: did respond

B2: tenascin-C siRNA: tenascin-C targeted siRNAs; combination of oligos 1+2 used for cytokine synthesis (nucleic acid)
sense 1: CGCGAGAACUUCUACCAAATT
antisense 1: UUUGGUAGAAGUUCUCGCGTC
sense 2: GGAAUAUGAAUAAAGAAGATT
antisense 2: UCUUCUUUAUUCAUAUUCCGG
modifications: chemistry not given here
notes: tenascin-C targeted siRNAs; combination of oligos 1+2 used for cytokine synthesis
knockdown of tenascin-C expression, maximal efficiency [9]: 94-96%
inhibition of LPS induced cytokine production ([10]; 10 ng/ml LPS 24 h): 44%
inhibition of basal level of cytokine synthesis [10]: 38%

— patent US20200362024A1, “BIOLOGICAL MATERIALS AND USES THEREOF” (IMPERIAL INNOVATIONS LIMITED, priority 2009, published 2020)
